Legend:
[1] = system: patient-derived tumor with BRCA1 germline mutation 185delAG; assay: Patient-derived BRCA1 185delAG breast tumor xenograft growth; type: in vivo, human; conditions: tumor resistant to standard chemotherapy and Compound B; Compound A 30 mg/kg/day, Compound B 50 mg/kg/day
Text: FIGS. 6G and 6H are graphs showing the relative tumor volume (RTV) over time of tumors from breast cancer tissues from two patients, one with a 185delAG germline mutation (6G) and the other one with a 2080delA germline mutation (6H), propagated as subcutaneous implants in nude mice. Tumors were allowed to grow to a size of 5 mm when mice were randomized to treatments with either vehicle control (squares), Compound A (upside-down triangles), Compound B (triangles), or their combination (diamonds) (n=6 for each cohort, same dosing as in 6F).
All animal experiments were conducted in accordance with IACUC-approved protocols at Beth Israel Deaconess Medical Center, Boston, and at the University of Vall d'Hebron, Barcelona, Spain. […] The floxed or wild type status of Brca1, the presence of the MMTV-Cre transgene and the p53 heterozygosity were determined by PCR. […] When tumormetrics were performed, the length and width of the tumor was determined using calipers, and the tumor volume was determined (width^2×length/2). Tumor volume was used as a measure of growth and was recorded as ratio to tumor volume at diagnosis. Tumor doubling times were calculated using the functions of the best fit curves for all data points in each treatment modality. […]

[2] = system: HCC1937 and SUM149 cells; assay: Immunoblotting of BRCA1-mutant breast cancer cell lines treated with drugs; type: cell-based, human; conditions: for overall poly-ADP-ribosylation (PAR): Compound B 10 μM; for activation status of EGFR/MAPK pathways: 72 hours treatment, immunoblot
Text: The PI3K inhibitor 5-(2,6-dimorpholinopyrimidin-4-yl)-4-(trifluoromethyl)pyridin-2-amine (Compound A) was obtained through a Material Transfer Agreement with Novartis Pharmaceuticals. Olaparib (Compound B) was purchased from LC Laboratories (Woburn, Mass.) and KU-55933 was purchased from Selleck Chemicals (Houston, Tex.). BRCA1-mutant human breast cancer cell line HCC1937 was from American Type Culture Collection; # CRL-2336, and maintained in DMEM/10% FBS and SUM149 was from Division of Signal Transduction, BIDMC, maintained in Ham's F-12 with 5% fetal bovine serum (FBS), 5 μg/ml insulin, 2 μg/ml hydrocortisone, 5 μg/ml gentamicin and 2.5 μg/ml fungizone. Cell lines were authenticated by immunoblotting for BRCA1 and PTEN and tested for absence of mycoplasma.
Cells were treated with mock, 5-(2,6-dimorpholinopyrimidin-4-yl)-4-(trifluoromethyl)pyridin-2-amine (Compound A), 4-[[3-[4-(cyclopropanecarbonyl)piperazine-1-carbonyl]-4-fluorophenyl]methyl]-2H-phthalazin-1-one (Compound B), KU-55933, or the combination and lysed in cell lysis buffer (9803, Cell Signaling) as per the manufacturer's instructions. Immunoblots were performed using the Nupage System (Invitrogen). The protein concentration was determined using Bradford reagent (Biorad). A total of 20 μg of protein were loaded, except for PAR, Phospho ATM and Phospho DNA-PK/PRKDC western blots, where 40 μg were loaded. Tumor tissue lysates were prepared similarly with the exception of tissue homogenization by using an electric homogenizer for 30 secs after addition of the lysis buffer. Primary antibodies used for western blotting were total AKT (9272), Cleaved Caspace 3 (9661), total ERK (4695), Phospho AKT Ser473 (4058), Phospho ERK Thr202/Tyr204 (9106), Phospho-Histone H2AX Ser139 (2577), PTEN (9559) from Cell Signaling. Phospho ATM Ser1981 (2152-1), Phospho DNA-PK/PRKDC Ser2056 (3892-1) from Epitomics, Inc. CD31 (ab28364), Actin (ab6276), INPP4B (ab81269) from Abcam; pADPr (sc56198) from Santacruz Biotechnology; and Ki-67 (RM-9106) was purchased from Thermo Scientific.

SMILES	growth of patient-derived tumor (relative tumor volume) [1]	cleaved caspase 3 (CC3), apoptosis marker ([2]; 24 hours)	overall poly-ADP-ribosylation (PAR) ([2]; 24 hours, Compound A 1 μM)	H2AX phosphorylation on Serine 139 (γH2AX) ([2]; 24 hours, Compound A 1 μM, Compound B 10 μM in combination)	activation status of EGFR/MAPK pathways [2]	phosphorylation of AKT ([2]; increasing concentrations, 24 hours)
Nc1cc(C(F)(F)F)c(-c2cc(N3CCOCC3)nc(N3CCOCC3)n2)cn1 [Compound A, 5-(2,6-dimorpholinopyrimidin-4-yl)-4-(trifluoromethyl)pyridin-2-amine]	modestly attenuated	remained negative	dose dependent increase	increased with increasing concentrations	induced a compensatory activation	diminishing phosphorylation
O=C(c1cc(Cc2n[nH]c(=O)c3ccccc23)ccc1F)N1CCN(C(=O)C2CC2)CC1 [Compound B, 4-[[3-[4-(cyclopropanecarbonyl)piperazine-1-carbonyl]-4-fluorophenyl]methyl]-2H-phthalazin-1-one, reference compound]	modestly attenuated		completely blocked		did not have a discernible effect	

From US20140235630A1, “COMPOSITIONS AND METHODS FOR THE TREATMENT OF PROLIFERATIVE DISEASES” (Beth Israel Deaconess Medical Center, Inc., priority 2011, published 2014)
